From article PMC7308271, “Discovery of a new class of orthosteric antagonists with nanomolar potency at extrasynaptic GABAA receptors” (Scientific Reports, 2020)
Read-outs that look alike come from different tables or passages of the source.

Molecular target: T1, human α1β2δ GABAΑ receptor (Homo sapiens, UniProt P14867+P47870)
T1 construct: expressed in transfected cells; host or cells: δ-HEK (HEK293 Flp-In stably expressing human δ), transiently transfected with α and β 1:1
T1 sequence (P14867 28-456): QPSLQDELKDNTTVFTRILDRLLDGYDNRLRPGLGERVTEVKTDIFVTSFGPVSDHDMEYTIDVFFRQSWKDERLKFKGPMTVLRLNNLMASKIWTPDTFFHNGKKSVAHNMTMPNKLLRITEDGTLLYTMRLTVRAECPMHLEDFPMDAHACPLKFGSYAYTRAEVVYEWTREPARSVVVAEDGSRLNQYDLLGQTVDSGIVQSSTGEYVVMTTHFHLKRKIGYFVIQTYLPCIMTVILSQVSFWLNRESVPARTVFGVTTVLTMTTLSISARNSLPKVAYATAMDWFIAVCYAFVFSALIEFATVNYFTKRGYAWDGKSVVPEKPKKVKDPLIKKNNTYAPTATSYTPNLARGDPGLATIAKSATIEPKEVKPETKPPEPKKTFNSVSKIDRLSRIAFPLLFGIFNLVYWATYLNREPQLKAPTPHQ
T1 sequence (P47870 25-512 limits assumed): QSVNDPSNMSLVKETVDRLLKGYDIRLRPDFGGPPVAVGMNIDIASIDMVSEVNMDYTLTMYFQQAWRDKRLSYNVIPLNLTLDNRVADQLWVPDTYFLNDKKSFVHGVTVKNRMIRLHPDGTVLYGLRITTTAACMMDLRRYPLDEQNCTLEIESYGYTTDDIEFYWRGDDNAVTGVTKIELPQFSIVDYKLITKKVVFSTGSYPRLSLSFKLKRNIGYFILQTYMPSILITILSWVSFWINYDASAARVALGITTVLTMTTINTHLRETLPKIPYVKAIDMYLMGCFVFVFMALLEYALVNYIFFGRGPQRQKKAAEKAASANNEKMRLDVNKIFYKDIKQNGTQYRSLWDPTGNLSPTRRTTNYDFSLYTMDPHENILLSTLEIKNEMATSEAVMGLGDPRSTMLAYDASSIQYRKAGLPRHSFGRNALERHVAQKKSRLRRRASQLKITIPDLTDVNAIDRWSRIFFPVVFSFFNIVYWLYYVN
T1 sequence (O14764 25-452 partner): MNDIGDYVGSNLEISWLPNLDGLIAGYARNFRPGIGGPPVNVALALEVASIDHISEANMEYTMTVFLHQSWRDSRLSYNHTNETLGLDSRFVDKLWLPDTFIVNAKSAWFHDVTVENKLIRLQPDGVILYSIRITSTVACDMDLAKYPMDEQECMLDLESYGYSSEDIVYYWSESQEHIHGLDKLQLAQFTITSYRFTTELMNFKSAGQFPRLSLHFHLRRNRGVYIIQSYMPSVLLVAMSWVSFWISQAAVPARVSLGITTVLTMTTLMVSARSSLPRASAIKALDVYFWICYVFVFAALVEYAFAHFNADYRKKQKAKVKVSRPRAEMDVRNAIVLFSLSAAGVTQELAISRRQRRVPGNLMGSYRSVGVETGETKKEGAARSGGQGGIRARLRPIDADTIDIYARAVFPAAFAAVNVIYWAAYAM
Assay: FMP assay at α1β2δ GABAA receptors in HEK cells
Type: cell-based
Experimental: HEK293 cells were maintained in DMEM containing GlutaMAX-I, supplemented with 10% FBS and 1% penicillin-streptomycin and incubated at 37 °C and a humidity of 5% CO2. For expression of δ-containing GABAΑ receptors, a HEK293 Flp-In^ΤΜ cell line stably expressing the human GABAΑ δ-subunits (referred to as δ-HEK) was used and the γ-containing subtypes was expressed in a background HEK293 Flp-In^ΤΜ cell line stably expressing the G-protein coupled peptide receptor NPBWR2 (referred to as HEK background)[26], both positively selected for using 200 μg/mL hygromycin B. α1β2γ2 receptors were stably expressed in a HEK293 cell line maintained as above but with no selection (gift from Marianne L. Jensen, Neurosearch).
To express recombinant GABAΑ receptors human α1, α2, α3, α5, α6, β2, γ2 (pcDNA3.1/Zeo) and α4, β1 (pUNIV)[26] subunit cDNA were transiently transfected into either δ-HEK or HEK background cells. δ-HEK cells were transfected with α- and β-subunits in a 1:1 ration whereas HEK background cells were transfected with α-, β- and γ-subunits in a 1:1:2 ratio. Human BGT1 (pcDNA5/FRT)[43] was transiently transfected into the δ-HEK cell line. δ-HEK cells transfected for whole-cell patch-clamp recordings were co-transfected with green fluorescent protein (GFP) as well as α- and β-subunits in a 0.5:1:1 ratio (0.8 μg + 1.6 μg + 1.6 μg in a 6 cm dish) in order to identify transfected cells. The transfection was carried out using Polyfect as transfection reagent according to the manufactures protocol expect for using half the recommended volume of Polyfect.
The FMP assay was performed as previously described with a few modifications. Briefly, HEK cells were transfected as described[26] and 16–20 hours later plated (50,000 cells/well in DMEM medium) into clear-bottomed black 96-well plates coated with poly-D-lysine and the assay performed 20–28 hours later. The assay protocol including the FMP blue dye incorporation into membranes was exactly as described in Falk-Petersen et al.[26]. […] Data was obtained as changes in fluorescence units (∆RFU) by measuring emission at 560 nm caused by excitation at 530 nm. Unless otherwise mentioned in the text or figure legends experiments were performed in at least three independent experiments each using three technical replicates. Due to an observed edge effect for the FMP assay, outer wells were not used except for the screening.
Data obtained in the FMP assay are given as relative changes in fluorescence units (ΔRFU) by subtracting the average of the baseline fluorescence signal from the peak fluorescence signal after compound addition. All raw traces were inspected manually and peak signals resulting from compound/buffer addition together with signal artefacts were omitted from the analysis.
The concentration-response curves obtained in the FMP assay for both agonists (determining EC50 values) and antagonists (determining IC50 values) were fitted using the four-parameter concentration-response model: Response=bottom+top−bottom/1+10^[(logEC50-A)⋅nH] EC/IC50 values describe the concentration resulting in the half-maximal response (halfway between top and bottom), and nΗ is the Hill coefficient. […] Gaddum Schild analysis was performed using GraphPad Prism version 8.2.1 (GraphPad Software Inc., San Diego, CA, USA). EC50/IC50 values obtained in the FMP assay are given as means ± SEM from at least three independent experiments with three technical replicates, as specified in the individual figure legends.

[1] = antagonist activity vs GABA EC80 10–14 μM, mean, read-out: IC50
[2] = vs GABA EC80, read-out: pIC50 ± SEM (converted)

**Q.** With `NCCCC(=O)O` [GABA] as the compound, how does the “GABA EC80” value (calculated from GABA potencies, used in antagonist tests) read?
**A.** Its value is 10 to 14 µM.

**Q.** How did the IC50 [1] turn out when `O=C(Nc1cccc(C(=O)N2CCC3(CCNCC3)CC2)c1)c1cccs1` [compound 018, N-(3-(3,9-diazaspiro[5.5]undecane-3-carbonyl)phenyl)thiophene-2-carboxamide] was run?
**A.** Its IC50 is 0.24 µM.

**Q.** And the IC50 [2]?
**A.** The IC50 was 0.245 µM.

**Q.** Which “potency reduction of 2027 compared to 018” value does the source give for `CC(=O)Nc1cccc(C(=O)N2CCC3(CCNCC3)CC2)c1` [compound 2027, N-(3-(3,9-diazaspiro[5.5]undecane-3-carbonyl)phenyl)acetamide] here?
**A.** The value was 28 times.

**Q.** And the IC50 [1]?
**A.** The IC50 was 6.68 µM.

**Q.** What about the IC50 [2] of the same compound?
**A.** The IC50 was 6.76 µM.
